This passage reports melting point results from US7060822B1, “2-pyrazolin-5-ones” (Abbott GmbH & Co. KG, priority 1999, dated 2006).

A word on the melting point: it is the temperature, or range, at which the solid turns liquid.

Bounds are passed on as bounds.

In the case of `CC(C)C1=NNC(=O)C1=Cc1c[nH]c2ccccc12` [Example 252, 3-Isopropyl-4-[(indol-3-yl)methylene]-2-pyrazolin-5-one], the melting point was 264 to 266 °C.

As to `COc1ccc2c(c1)c(C=C1C(=O)NN=C1C1CC1)cn2C` [Example 288, 3-Cyclopropyl-4-[(5-methoxy-1-methylindol-3-yl)methylene]-2-pyrazolin-5-one], the melting point is 236 to 238 °C.

`CCOC1=NNC(=O)C1=Cc1ccc[nH]1` [Example 31, 3-Ethoxy-4-[(pyrrol-2-yl)methylene]-2-pyrazolin-5-one] gave a melting point of 211 to 213 °C.

As for `COc1ccc(OCC2=NNC(=O)C2=Cc2c[nH]c3ccccc23)cc1` [Example 212, 4-[(Indol-3-yl)methylene]-3-(4-methoxyphenyloxymethyl)-2-pyrazolin-5-one], the melting point lay in the range of 266 to 268 °C.

`CC(CC1=NNC(=O)C1=Cc1c[nH]c2ccccc12)c1ccccc1` (stereo not drawn) [Example 233, 4-[(Indol-3-yl)methylene]-3-(2-phenylpropyl)-2-pyrazolin-5-one] had a melting point of 253 to 255 °C.

`CC(C)OC1=NNC(=O)C1=Cc1cn(C)c2cc(C(=O)O)ccc12` [Example 293, 4-[(6-Carboxy-1-methylindol-3-yl)methylene]-3-isopropoxy-2-pyrazolin-5-one] had a melting point of 330 to 332 °C.

Turning to `O=C(CC1=NNC(=O)C1=Cc1c[nH]c2ccccc12)Nc1ccc(Cl)cc1` [Example 253, 3-(4-Chlorophenylaminocarbonylmethyl)-4-[(indol-3-yl)methylene]-2-pyrazolin-5-one], the melting point was 305 to 307 °C.

In turn, `O=C1NN=C(c2c[nH]c3ccccc23)C1=Cc1ccc[nH]1` [Example 20, 3-(Indol-3-yl)-4-[(pyrrol-2-yl)methylene]-2-pyrazolin-5-one] returned a melting point of 300 to 305 °C.

`CN(C)c1ccc(C=C2C(=O)NN=C2CCc2ccccc2)cc1` [Example 360, 4-[(4-Dimethylaminophenyl)methylene]-3-phenylethyl-2-pyrazolin-5-one] came in with a melting point of 224 to 225 °C.

`Cc1[nH]c(C=C2C(=O)NN=C2c2cnccn2)c(C)c1CN1CCOCC1` [Example 128, 4-[(3,5-dimethyl-4-morpholinomethylpyrrol-2-yl)methylene]-3-pyrazinyl-2-pyrazolin-5-one] displayed a melting point of 274 to 277 °C.

In turn, `O=C1NN=C(c2ccccc2)C1=Cc1cc2ccccc2[nH]1` [Example 321, 4-[(Indol-2-yl)methylene]-3-phenyl-2-pyrazolin-5-one] came in with a melting point of 210 to 211 °C.

The compound `CC(C)OC1=NNC(=O)C1=Cc1ccc(O)c2ncccc12` [Example 370, 4-[(8-Hydroxyquinolin-5-yl)methylene]-3-isopropoxy-2-pyrazolin-5-one] came in with a melting point of over 300 °C.

On to `O=C1NN=C(CCc2ccc(O)cc2)C1=Cc1c[nH]c2ccccc12` [Example 235, 3-(4-Hydroxyphenylethyl)-4-[(indol-3-yl)methylene]-2-pyrazolin-5-one], for which the melting point was in the range of 271 to 275 °C.

The compound `Cc1[nH]c(C=C2C(=O)NN=C2c2cnccn2)c(C)c1CNC(=O)C(F)(F)F` [Example 139, 4-[(3,5-Dimethyl-4-trifluoroacetamidomethylpyrrol-2-yl)methylene]-3-pyrazinyl-2-pyrazolin-5-one] displayed a melting point of 302 to 305 °C.

For the compound `O=C1NN=C(C2CCCC2)C1=Cc1ccc[nH]1` [Example 62, 3-Cyclopentyl-4-[(pyrrol-2-yl)methylene]-2-pyrazolin-5-one], the melting point fell in the range of 127 to 129 °C.

In turn, `O=C1NN=C(C2CCCCC2)C1=Cc1ccc[nH]1` [Example 107, 3-Cyclohexyl-4-[(pyrrol-2-yl)methylene]-2-pyrazolin-5-one] showed a melting point of 176 to 178 °C.

In the case of `COC(=O)CCC1=NNC(=O)C1=Cc1ccc[nH]1` [Example 103, 3-(2-Methoxycarbonylethyl)-4-[(pyrrol-2-yl)methylene]-2-pyrazolin-5-one], the melting point was in the range of 134 to 136 °C.

`COc1ccc(CC2=NNC(=O)C2=Cc2c[nH]c3ccccc23)cc1OC` [Example 227, 3-(3,4-dimethoxybenzyl)-4-[(indol-3-yl)methylene]-2-pyrazolin-5-one] yielded a melting point of 282 to 284 °C.

Compound `O=C1NN=C(C2CC2)C1=Cc1ccc(CN2CCOCC2)[nH]1` [Example 109, 3-Cyclopropyl-4-[(5-morpholinomethylpyrrol-2-yl)methylene]-2-pyrazolin-5-one] displayed a melting point of 184 to 186 °C.

As for `COC(=O)c1ccc(CCC2=NNC(=O)C2=Cc2c[nH]c3ccccc23)cc1` [Example 249, 4-[(Indol-3-yl)methylene]-3-(4-methoxycarbonylphenylethyl)-2-pyrazolin-5-one], the melting point lay within 259 to 260 °C.

For `Cn1cc(C=C2C(=O)NN=C2NC(=O)C(F)(F)F)c2ccccc21` [Example 297, 4-[(1-Methylindol-3-yl)methylene]-3-trifluoroacetamido-2-pyrazolin-5-one], the melting point is 252 to 253 °C.

In turn, `Cc1c[nH]c(C=C2C(=O)NN=C2CCc2ccc(N)cc2)c1` [Example 42, 3-(4-Aminophenylethyl)-4-[(4-methylpyrrol-2-yl)methylene]-2-pyrazolin-5-one] gave a melting point of 178 to 180 °C.

In the case of `O=C1NN=C(C2CC2)C1=Cc1ccc(C(=O)O)[nH]1` [Example 110, 4-[(5-Carboxypyrrol-2-yl)methylene]-3-cyclopropyl-2-pyrazolin-5-one], the melting point is 220 °C (dec.).

`CCOC(=O)c1c(C)[nH]c(C=C2C(=O)NN=C2c2ccno2)c1C` [Example 161, 4-[(3,5-Dimethyl-4-ethoxycarbonylpyrrol-2-yl)methylene]-3-(5-isoxazolyl)-2-pyrazolin-5-one] came in with a melting point of 255 to 257 °C.

Compound `Cc1n[nH]cc1C=C1C(=O)NN=C1OC(C)C` [Example 362, 3-Isopropoxy-4-[(3-methylpyrazol-4-yl)methylene]-2-pyrazolin-5-one] gave a melting point of 228 to 230 °C.

Compound `CCc1c(C)[nH]c(C=C2C(=O)NN=C2c2ccccn2)c1C` [Example 125, 4-[(3,5-Dimethyl-4-ethylpyrrol-2-yl)methylene]-3-(2-pyridyl)-2-pyrazolin-5-one] came in with a melting point of 184 to 186 °C.

Consider `COC(=O)C(Cc1c(C=C2C(=O)NN=C2OC(C)C)[nH]c2ccccc12)NC(C)=O` (stereo not drawn) [Example 323, 3-Isopropoxy-4-{[3-(2-methoxycarbonyl-2-acetamidoethyl)indol-2-yl]methylene}-2-pyrazolin-5-one], for which the melting point was in the range of 205 to 206 °C.

Regarding `O=C1NN=C(C2CC2)C1=Cc1cc(Cl)c[nH]1` [Example 114, 4[(4-Chloropyrrol-2-yl)methylene]-3-cyclopropyl-2-pyrazolin-5-one], the melting point is 220 °C (dec.).

In the case of `CCOC1=NNC(=O)C1=Cc1[nH]c(Cl)c(CC(=O)OC)c1C(=O)OC` [Example 156, 4-[(5-Chloro-3-methoxycarbonyl-4-methoxycarbonylmethylpyrrol-2-yl)methylene]-3-ethoxy-2-pyrazolin-5-one], the melting point was in the range of 225 to 227 °C.

`Cc1[nH]c(C=C2C(=O)NN=C2OC(C)C)c(C)c1CN1CCOCC1` [Example 85, 4-[(3,5-Dimethyl-4-morpholinomethylpyrrol-2-yl)methylene]-3-isopropoxy-2-pyrazolin-5-one] gave a melting point of 162 to 164 °C.
